# Tests used:
# AtSHT [1] = target: T1, AtSHT (Arabidopsis thaliana, UniProt O64470); assay: X-ray crystal structure; format: binding; details: co-crystallised with spermidine and CoA; 2.3 Å; active site near His155
# T1 construct: gene SHT; wild type in pET28a (NdeI/XhoI), E. coli BL21(DE3), Ni-NTA and gel filtration; model residues 1-451
# T1 sequence (O64470 1-451): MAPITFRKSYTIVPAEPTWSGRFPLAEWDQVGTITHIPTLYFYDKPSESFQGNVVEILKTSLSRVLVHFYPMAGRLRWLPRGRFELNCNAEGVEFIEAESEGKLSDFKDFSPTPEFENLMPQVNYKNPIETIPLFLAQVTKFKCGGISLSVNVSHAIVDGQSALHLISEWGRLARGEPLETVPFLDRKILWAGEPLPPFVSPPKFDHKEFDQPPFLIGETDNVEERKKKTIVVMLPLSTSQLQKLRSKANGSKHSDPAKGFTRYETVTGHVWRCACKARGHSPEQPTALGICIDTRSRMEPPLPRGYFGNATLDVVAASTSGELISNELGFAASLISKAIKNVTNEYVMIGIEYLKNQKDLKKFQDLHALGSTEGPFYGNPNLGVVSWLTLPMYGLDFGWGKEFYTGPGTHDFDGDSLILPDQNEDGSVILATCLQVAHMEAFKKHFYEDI
# OAO95042.1 = target: T2, OAO95042.1 (Arabidopsis thaliana, UniProt F4K5C5); assay: HPLC-MS product assay; format: biochemical; details: 200 µM putrescine, 60 µM caffeoyl-CoA, pH 7.5, 30 °C, 30 min
# T2 construct: gene At5g07080; wild type in pET28a (NdeI/XhoI), E. coli BL21(DE3), Ni-NTA and gel filtration
# T2 sequence (F4K5C5 1-450): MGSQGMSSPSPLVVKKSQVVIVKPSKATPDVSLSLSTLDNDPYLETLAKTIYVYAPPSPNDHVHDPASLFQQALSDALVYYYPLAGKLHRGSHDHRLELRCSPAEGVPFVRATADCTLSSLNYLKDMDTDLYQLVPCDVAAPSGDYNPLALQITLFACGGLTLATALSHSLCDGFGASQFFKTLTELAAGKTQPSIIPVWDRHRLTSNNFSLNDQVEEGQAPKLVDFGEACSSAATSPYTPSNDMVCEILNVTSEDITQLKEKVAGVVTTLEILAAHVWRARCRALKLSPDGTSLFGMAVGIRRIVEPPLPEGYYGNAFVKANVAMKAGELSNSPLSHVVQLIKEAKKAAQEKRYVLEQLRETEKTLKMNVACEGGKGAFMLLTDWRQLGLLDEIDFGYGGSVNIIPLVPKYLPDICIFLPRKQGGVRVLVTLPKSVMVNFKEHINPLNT
# NP_190301.2 = target: T3, NP_190301.2 (Arabidopsis thaliana, UniProt F4JAD2); assay: HPLC-MS product assay; format: biochemical; details: 200 µM putrescine, pH 7.5, 30 °C, 30 min
# T3 construct: gene At3g47170; wild type in pET28a (NdeI/XhoI), E. coli BL21(DE3), Ni-NTA and gel filtration
# T3 sequence (F4JAD2 1-468): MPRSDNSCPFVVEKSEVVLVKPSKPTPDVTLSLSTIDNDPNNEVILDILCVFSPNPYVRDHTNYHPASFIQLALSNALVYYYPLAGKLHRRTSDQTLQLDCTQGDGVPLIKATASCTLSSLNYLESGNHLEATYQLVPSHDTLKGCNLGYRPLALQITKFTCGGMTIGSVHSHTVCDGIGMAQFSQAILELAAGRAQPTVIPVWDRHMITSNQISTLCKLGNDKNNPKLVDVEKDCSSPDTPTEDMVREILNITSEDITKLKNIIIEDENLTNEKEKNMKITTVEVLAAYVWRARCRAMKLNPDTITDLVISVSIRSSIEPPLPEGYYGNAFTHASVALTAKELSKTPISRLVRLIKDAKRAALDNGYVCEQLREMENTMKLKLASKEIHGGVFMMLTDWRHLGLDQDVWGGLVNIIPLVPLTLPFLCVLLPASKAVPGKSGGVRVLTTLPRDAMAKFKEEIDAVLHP
# AtSDT [2] = target: T4, AtSDT (Arabidopsis thaliana, UniProt O80467); assay: LC-MS product assay; X-ray crystal structure; format: biochemical; details: 200 µM spermidine, 60 µM sinapoyl-CoA, pH 7.5, 30 °C, 30 min; ligand in crystal only possible electron density, pose docked
# T4 construct: gene SDT; wild type in pET28a (NdeI/XhoI), E. coli BL21(DE3), Ni-NTA and gel filtration
# T4 sequence (O80467 1-451): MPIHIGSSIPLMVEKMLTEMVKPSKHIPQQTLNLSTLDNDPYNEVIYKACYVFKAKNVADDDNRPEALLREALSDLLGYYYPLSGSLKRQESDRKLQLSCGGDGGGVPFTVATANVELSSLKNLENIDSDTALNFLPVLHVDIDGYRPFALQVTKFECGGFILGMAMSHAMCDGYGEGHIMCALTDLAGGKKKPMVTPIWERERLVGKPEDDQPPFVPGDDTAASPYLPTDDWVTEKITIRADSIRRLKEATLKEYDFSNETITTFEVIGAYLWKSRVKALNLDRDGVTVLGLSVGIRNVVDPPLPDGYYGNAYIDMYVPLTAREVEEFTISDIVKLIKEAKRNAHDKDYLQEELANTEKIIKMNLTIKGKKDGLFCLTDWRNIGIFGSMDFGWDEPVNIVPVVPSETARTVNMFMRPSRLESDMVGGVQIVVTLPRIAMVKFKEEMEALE
# AtSHT [3] = target: T1, AtSHT; assay: LC-MS product assay; X-ray crystal structure; format: biochemical; details: 200 µM spermidine, 60 µM feruloyl-CoA, pH 7.5, 30 °C, 30 min; ligand in crystal only possible electron density, pose docked
# AtSDT [4] = target: T4, AtSDT; assay: LC-MS product assay; format: biochemical; details: 60 µM acyl donor, 200 µM spermidine, pH 7.5, 30 °C, 30 min
# AtSHT [5] = target: T1, AtSHT; assay: LC-MS product assay; format: biochemical; details: 60 µM acyl donor, 200 µM spermidine, pH 7.5, 30 °C, 30 min
structure (smiles),measurement,setting,value
CC(C)(COP(=O)(O)OP(=O)(O)OC[C@H]1O[C@@H](n2cnc3c(N)ncnc32)[C@H](O)[C@@H]1OP(=O)(O)O)[C@@H](O)C(=O)NCCC(=O)NCCS [CoA-HS],X-ray crystal structure,AtSHT [1],The extra density near His155 was determined as CoA-HS
NCCCCN [putrescine],HPLC-MS product assay,OAO95042.1,encoded enzymes that could efficiently convert putrescine and caffeoyl-CoA to di-caffeoyl putrescine
same,HPLC-MS product assay,NP_190301.2; 60 µM caffeoyl-CoA,encoded enzymes that could efficiently convert putrescine and caffeoyl-CoA to di-caffeoyl putrescine
NCCCCNCCCN [spermidine],LC-MS product assay; X-ray crystal structure,AtSDT [2],wild-type AtSDT can efficiently couple spermidine with sinapoyl CoA to yield monosinapoyl
same,LC-MS product assay; X-ray crystal structure,AtSHT [3],wild-type AtSHT can efficiently convert spermidine and feruloyl-CoA to monoferuloyl spermidine
COc1cc(/C=C/C(=O)SCCNC(=O)CCNC(=O)[C@H](O)C(C)(C)COP(=O)(O)OP(=O)(O)OC[C@H]2O[C@@H](n3cnc4c(N)ncnc43)[C@H](O)[C@@H]2OP(=O)(O)O)cc(OC)c1O [sinapoyl-CoA],LC-MS product assay,AtSDT [4],wild-type AtSDT can efficiently couple spermidine with sinapoyl CoA to yield monosinapoyl
COc1cc(/C=C/C(=O)SCCNC(=O)CCNC(=O)[C@H](O)C(C)(C)COP(=O)(O)OP(=O)(O)OC[C@H]2O[C@@H](n3cnc4c(N)ncnc43)[C@H](O)[C@@H]2OP(=O)(O)O)ccc1O [feruloyl-CoA],LC-MS product assay,AtSHT [5],wild-type AtSHT can efficiently convert spermidine and feruloyl-CoA to monoferuloyl spermidine
CC(C)(COP(=O)(O)OP(=O)(O)OC[C@H]1O[C@@H](n2cnc3c(N)ncnc32)[C@H](O)[C@@H]1OP(=O)(O)O)[C@@H](O)C(=O)NCCC(=O)NCCSC(=O)/C=C/c1ccc(O)c(O)c1 [caffeoyl-CoA],HPLC-MS product assay,NP_190301.2; 60 µM acyl donor,encoded enzymes that could efficiently convert putrescine and caffeoyl-CoA to di-caffeoyl putrescine

# — paper PMC7838080, “Structural and Biochemical Insights Into Two BAHD Acyltransferases (AtSHT and AtSDT) Involved in Phenolamide Biosynthesis” (Frontiers in Plant Science, 2021)
